The values that follow come from US7223759B2, “Antibacterial 3,5-diaminopiperidine-substituted aromatic and heteroaromatic compounds” (Anadys Pharmaceuticals, Inc., priority 2003, dated 2007).

For orientation: MIC means the lowest concentration found to suppress growth.

The subject of one test is Escherichia coli (ATCC25922) or Staphylococcus aureus (ATCC25923). Briefly: Antibacterial MIC, microdilution method in Mueller-Hinton medium. It counts as cell-based. The following applies: Escherichia coli, 18 h, MIC in E. coli or S. aureus; two-fold serial dilutions 64 to 0.5 μg/ml in duplicate; 18 hours of incubation at 35° C.; read-out: Potency (MIC). Summed up: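 Two-fold serial dilutions from 64 to 0.5 μg/ml, in duplicate, by broth microdilution in Mueller-Hinton medium (NCCLS M7-A5). MIC taken as the lowest concentration preventing visible growth after 18 h at 35° C.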
For orientation: Broth dilution looks for growth in wells or tubes with falling amounts of substance.
Take `Cc1csc(Nc2nc(N3C[C@H](N)C[C@H](N)C3)nc(N3C[C@H](N)C[C@H](N)C3)n2)n1.Cl` [N-(4-methyl-thiazol-2-yl)-4,6-Bis-((3R,5S)-3,5-diamino-piperidin-1-yl)-[1,3,5]triazine-2-amine]: the MIC was above 64 µg/mL. Still for that read-out and setting: next, `N[C@@H]1C[C@H](N)CN(c2nc(Nc3ccc(Nc4ccccc4)cc3)nc(N3C[C@H](N)C[C@H](N)C3)n2)C1` [N-(4-phenylamino-phenyl)-4,6-Bis((3R,5S)-3,5-diamino-piperidin-1-yl)-[1,3,5]triazine-2-amine]: below 64 µg/mL; `N[C@@H]1C[C@H](N)CN(c2nc(Nc3ccc(C(=O)Nc4ccccc4)cc3)nc(N3C[C@H](N)C[C@H](N)C3)n2)C1` [N-(4-phenylcarbamoyl-phenyl)-4,6-Bis-((3R,5S)-3,5-diamino-piperidin-1-yl)-[1,3,5]triazine-2-amine]: above 64 µg/mL. Take `N=C(N)Nc1ccc(Nc2nc(N3CCCCC3)nc(N3CCCCC3)n2)cc1` [N-(4-quanidino-phenyl)-4,6-Bis-((3R,5S)-3,5-diamino-piperidin-1-yl)-[1,3,5]triazine-2-amine]: the minimal inhibitory concentration (MIC) is below 64 µg/mL. Turning to `N[C@@H]1C[C@H](N)CN(c2nc(Nc3ccc(SC(F)(F)F)cc3)nc(N3C[C@H](N)C[C@H](N)C3)n2)C1` [N-(4-trifluoromethylsulfanyl-phenyl)-4,6-Bis-((3R,5S)-3,5-diamino-piperidin-1-yl)-[1,3,5]triazine-2-amine], the MIC was below 64 µg/mL.

On to `CCN(C)CCNC(=O)c1ccc(NC(=O)CC(=O)c2ccc(Nc3nc(N4CCCCC4)nc(N4CCCCC4)n3)cc2)cc1.Cl` [N-(4-{2-[4-(2-diethylamino-ethylcarbamoyl)-phhenylcxarbamoyl]-acetyl}-phenyl)-4,6-Bis-((3R,5S)-3,5-diamino-piperidin-1-yl)-[1,3,5]triazine-2-amine], for which the minimal inhibitory concentration (MIC) was above 64 µg/mL. Consider `COc1ccc(Nc2ccc(NC(=O)CC(=O)c3ccc(Nc4nc(N5C[C@H](N)C[C@H](N)C5)nc(N5C[C@H](N)C[C@H](N)C5)n4)cc3)cc2)cc1` [N-(4-{2-[4-(4-methoxy-phenylamino)-phenylcarbamoyl]-acetyl}-phenyl)-4,6-Bis-((3R,5S)-3,5-diamino-piperidin-1-yl)-[1,3,5]triazine-2-amine], for which the MIC was below 16 µg/mL.

For the compound `Cl.O=C(CC(=O)N1CCC(n2c(=O)[nH]c3ccccc32)CC1)c1ccc(Nc2nc(N3CCCCC3)nc(N3CCCCC3)n2)cc1` [N-(4-{3-oxo-3-[4-(2-oxo-2,3-dihydro-benzoimidazol-1-yl)-piperidin-1-yl]-propionly}-phenyl)-4,6-Bis-((3R,5S)-3,5-diamino-piperidin-1-yl)-[1,3,5]triazine-2-amine], the MIC is above 64 µg/mL. On the same count and under the same terms, under `COc1ccc(NC(C)=O)cc1Nc1nc(N2C[C@H](N)C[C@H](N)C2)nc(N2C[C@H](N)C[C@H](N)C2)n1` [N-(5-acetylamino-2-methoxy-phenyl)-4,6-Bis-((3R,5S)-3,5-diamino-piperidin-1-yl)-[1,3,5]triazine-2-amine] stands above 64 µg/mL; under `Cl.NC(=O)c1[nH]cnc1Nc1nc(N2C[C@H](N)C[C@H](N)C2)nc(N2C[C@H](N)C[C@H](N)C2)n1` [N-(5-carbamoyl-1H-imidazol-4-yl)-4,6-Bis-((3R,5S)-3,5-diamino-piperidin-1-yl)-[1,3,5]triazine-2-amine], above 64 µg/mL. Still for that read-out and setting: next, `Cl.NC(=O)c1ccc(Nc2nc(N3C[C@H](N)C[C@H](N)C3)nc(N3C[C@H](N)C[C@H](N)C3)n2)nc1` [N-(5-carbamoyl-pyridin-2-yl)-4,6-Bis-((3R,5S)-3,5-diamino-piperidin-1-yl)-[1,3,5]triazine-2-amine]: above 64 µg/mL; `Cc1ccc(S(=O)(=O)N(C)C)cc1Nc1nc(N2C[C@H](N)C[C@H](N)C2)nc(N2C[C@H](N)C[C@H](N)C2)n1` [N-(5-dimethylsulfamoyl-2-methyl-phenyl)-4,6-Bis-((3R,5S)-3,5-diamino-piperidin-1-yl)-[1,3,5]triazine-2-amine]: above 64 µg/mL; `Cc1cc(Nc2nc(N3C[C@H](N)C[C@H](N)C3)nc(N3C[C@H](N)C[C@H](N)C3)n2)no1.Cl` [N-(5-methyl-isoxazol-3-yl)-4,6-Bis-((3R,5S)-3,5-diamino-piperidin-1-yl)-[1,3,5]triazine-2-amine]: above 64 µg/mL.

Regarding `CSc1nnc(Nc2nc(N3C[C@H](N)C[C@H](N)C3)nc(N3C[C@H](N)C[C@H](N)C3)n2)s1.Cl` [N-(5-methylsulfanyl-[1,3,4]thiadiazol-2-yl)-4,6-Bis-((3R,5S)-3,5-diamino-piperidin-1-yl)-[1,3,5]triazine-2-amine], the minimum inhibitory concentration (MIC) is above 64 µg/mL. Same read-out and setting: next, `Cl.Oc1cccc2ccc(Nc3nc(N4CCCCC4)nc(N4CCCCC4)n3)nc12` [N-(8-hydroxy-quinolin-2-yl)-4,6-Bis-((3R,5S)-3,5-diamino-piperidin-1-yl)-[1,3,5]triazine-2-ammine]: above 64 µg/mL; `N[C@@H]1C[C@H](N)CN(c2nc(Nc3ccc(O)c4ncccc34)nc(N3C[C@H](N)C[C@H](N)C3)n2)C1` [N-(8-hydroxy-quinolin-5-yl)-4,6-Bis-((3R,5S)-3,5-diamino-piperidin-1-yl)-[1,3,5]triazine-2-amine]: below 64 µg/mL.

The test is the same for the next values; noted with them: Escherichia coli, 18 h, read-out: Potency (MIC).
On to `Cc1cc(=O)oc2cc(Nc3nc(N4C[C@H](N)C[C@H](N)C4)nc(N4C[C@H](N)C[C@H](N)C4)n3)ccc12` [N-(4-methyl-2-oxo-2H-chromen-7-yl)-4,6-Bis-((3R,5S)-3,5-diamino-piperidin-1-yl)-[1,3,5]triazine-2-amine], for which the minimal inhibitory concentration (MIC) was below 16 µg/mL. Turning to `CSc1ccc(CNc2nc(N3C[C@H](N)C[C@H](N)C3)nc(N3C[C@H](N)C[C@H](N)C3)n2)cc1` [N-(4-methylsulfanyl-benzyl)-4,6-Bis-((3R,5S)-3,5-diamino-piperidin-1-yl)-[1,3,5]triazine-2-amine], the MIC is below 64 µg/mL.

In the case of `N[C@@H]1C[C@H](N)CN(c2nc(Nc3ccc(N4CCOCC4)cc3)nc(N3C[C@H](N)C[C@H](N)C3)n2)C1` [N-(4-morpholin-4-yl-phenyl)-4,6-Bis-((3R,5S)-3,5-diamino-piperidin-1-yl)-[1,3,5]triazine-2-amine], the minimal inhibitory concentration (MIC) was above 64 µg/mL.

For `N[C@@H]1C[C@H](N)CN(c2nc(Nc3ccc([N+](=O)[O-])cc3)nc(N3C[C@H](N)C[C@H](N)C3)n2)C1` [N-(4-nitro-phenyl)-4,6-Bis-((3R,5S)-3,5-diamino-piperidin-1-yl)-[1,3,5]triazine-2-amine], the minimal inhibitory concentration (MIC) is below 64 µg/mL. Same read-out and setting: under `N[C@@H]1C[C@H](N)CN(c2nc(NCc3ccc(Oc4ccccc4)cc3)nc(N3C[C@H](N)C[C@H](N)C3)n2)C1` [N-(4-phenoxy-benzyl)-4,6-Bis-((3R,5S)-3,5-diamino-piperidin-1-yl)-[1,3,5]triazine-2-amine] stands above 64 µg/mL.

`N[C@@H]1C[C@H](N)CN(c2nc(Nc3ccc(S(N)(=O)=O)cc3)nc(N3C[C@H](N)C[C@H](N)C3)n2)C1` [N-(4-sulfamoyl-phenyl)-4,6-Bis-((3R,5S)-3,5-diamino-piperidin-1-yl)-[1,3,5]triazine-2-amine]: the MIC was above 64 µg/mL. The same measure, in the same setting: under `C=Cc1ccc(Nc2nc(N3C[C@H](N)C[C@H](N)C3)nc(N3C[C@H](N)C[C@H](N)C3)n2)cc1` [N-(4-vinyl-phenyl)-4,6-Bis-((3R,5S)-3,5-diamino-piperidin-1-yl)-[1,3,5]triazine-2-amine] stands below 64 µg/mL. Regarding `N[C@@H]1C[C@H](N)CN(c2nc(Nc3ccc(C(=O)CC(=O)Nc4ccc(S(=O)(=O)Nc5ccc6cn[nH]c6c5)cc4)cc3)nc(N3C[C@H](N)C[C@H](N)C3)n2)C1` [N-(4-{2-[4-(1H-indazol-6-ylsulfamoyl)-phenylcarbamoyl]-acetyl}-phenyl)-4,6-Bis-((3R,5S)-3,5-diamino-piperidin-1-yl)-[1,3,5]triazine-2-amine], the minimum inhibitory concentration (MIC) is below 64 µg/mL. The same measure, in the same setting: next, `N[C@@H]1C[C@H](N)CN(c2nc(Nc3ccc(C(=O)CC(=O)NCc4ccc5c(c4)OCO5)cc3)nc(N3C[C@H](N)C[C@H](N)C3)n2)C1` [N-(4-{2-[(benzo[1,3]dioxol-5-ylmethyl)-carbamoyl]-acetyl}-phenyl)-4,6-Bis-((3R,5S)-3,5-diamino-piperidin-1-yl)-[1,3,5]triazine-2-amine]: above 64 µg/mL.

For the compound `Cc1ccc(S(=O)(=O)N(Cc2ccccc2)c2ccc(NC(=O)c3ccc(Nc4nc(N5C[C@H](N)C[C@H](N)C5)nc(N5C[C@H](N)C[C@H](N)C5)n4)cc3O)cc2O)cc1` [N-(4-{4-[benzyl-(toluene-4-sulfonyl)-amino]-3-hydroxy-phenylcarbamoyl)-3-hydroxy-phenyl)-4,6-Bis-((3R,5S)-3,5-diamino-piperidin-1-yl)-[1,3,5]triazine-2-amine], the minimum inhibitory concentration (MIC) is below 16 µg/mL.

With `Nc1cncc(Nc2nc(N3C[C@H](N)C[C@H](N)C3)nc(N3C[C@H](N)C[C@H](N)C3)n2)c1` [N-(5-amino-pyridin-3-yl)-4,6-Bis-((3R,5S)-3,5-diamino-piperidin-1-yl)-[1,3,5]triazine-2-amine], the minimal inhibitory concentration (MIC) is above 64 µg/mL.

On to `Cc1cccc(Nc2nc(N3C[C@H](N)C[C@H](N)C3)nc(N3C[C@H](N)C[C@H](N)C3)n2)n1` [N-(6-methyl-pyridin-2-yl)-4,6-Bis-((3R,5S)-3,5-diamino-piperidin-1-yl)-[1,3,5]triazine-2-amine], for which the MIC was above 64 µg/mL. As to `N[C@@H]1C[C@H](N)CN(c2nc(Nc3nc4ccc([N+](=O)[O-])cc4s3)nc(N3C[C@H](N)C[C@H](N)C3)n2)C1` [N-(6-nitro-benzothiazol-2-yl)-4,6-Bis-((3R,5S)-3,5-diamino-piperidin-1-yl)-[1,3,5]triazine-2-amine], the minimum inhibitory concentration (MIC) is below 16 µg/mL. With `N[C@@H]1C[C@H](N)CN(c2nc(Nc3ccc(O)c4ncccc34)nc(N3C[C@H](N)C[C@H](N)C3)n2)C1` [N-(8-hydroxy-quinolin-5-yl)-4,6-Bis-((3R,5S)-3,5-diamino-piperidin-1-yl)-[1,3,5]triazine-2-amine], the minimal inhibitory concentration (MIC) is below 16 µg/mL. On the same count and under the same terms, under `CCn1c2ccccc2c2cc(Nc3nc(N4C[C@H](N)C[C@H](N)C4)nc(N4C[C@H](N)C[C@H](N)C4)n3)ccc21` [N-(9-ethyl-9H-carbazol-3-yl)-4,6-Bis-((3R,5S)-3,5-diamino-piperidin-1-yl)-[1,3,5]triazine-2-amine] stands below 64 µg/mL.
